Measurements taken from EP4389751A1, “HETEROCYCLIC COMPOUNDS AND USES THEREOF” (Kumquat Biosciences Inc., priority 2021, dated 2024).
pIC50: −log10 of the molar value. Like-named read-outs stand apart in the source and are kept apart here.

Legend:
[1] = biological target: T1, KRAS protein (His-tagged GDP-loaded G12S 1-169) (Homo sapiens, UniProt P01116, G12S); assay: Covalent modification of KRAS protein, intact-protein LC-MS; format: binding; details: 24hrs at room temperature, KRAS protein ~2 µM
T1 construct: His-tagged GDP-loaded G12S 1-169
Outline: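 Percent covalent modification derives from deconvoluted intact-mass intensities of compound-adducted versus unmodified KRAS, measured by LC-ESI-MS. Before analysis, ~2 µM GDP-loaded His-KRAS 1-169 was exposed to compound for 24 h at room temperature and acidified with formic acid.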

[2] = system: A549 cells; assay: Cell proliferation assay (CellTiter-Glo), K-Ras G12S cells; format: cell-based; details: for pIC50: Homo sapiens, A549, A549 cells (K-Ras G12S), read-out: Inhibition of A549 Cells (IC50); for ratio of IC50 against a G12D cell line to IC50 against a G12S cell line: K-Ras G12D cell line such as GP2D relative to K-Ras G12S cell line such as A549, greater than 1, 2, 3, 4, 5, 10, 15 or even greater, 8640 min
Description: A549 (ATCC CRL-185) and LS123 (ATCC CRL-255) cell lines comprise a G12S mutation and can be used to assess Ras cellular signaling in vitro, e.g., in response to the compounds herein. A549 culture medium is prepared with RPMI-1640 and 10% heat-inactivated FBS. LS123 culture medium is prepared with RPMI-1640 and 10% heat-inactivated FBS. A CellTiter-Glo (CTG) luminescent based assay (Promega) is used to assess growth of the cells, as a measurement of the ability of the compounds herein to inhibit Ras signaling in the cells. The cells (e.g., 800 per well) are seeded in their respective culture medium in standard tissue culture-treated 384-well format plates (Falcon #08-772-116) or ultra-low attachment surface 384-well format plates (S-Bio # MS-9384WZ). The day after plating, cells are treated with a dilution series (e.g., a 10 point 3-fold dilution series) of the compounds herein (e.g., approximately 40 µl final volume per well). Cell viability can be monitored (e.g., approximately 6 days later) according to the manufacturer's recommended instructions, where the CellTiter-Glo reagent is added (e.g., approximately 10 µl), vigorously mixed, covered, and placed on a plate shaker (e.g., approximately for 20 min) to ensure sufficient cell lysis prior to assessment of luminescent signal. The IC50 values are determined using the four parameter fit. The resulting IC50 value is a measurement of the ability of the compounds herein to reduce cell growth of Ras-driven cells (e.g., tumor cell lines) in vitro and/or in vivo.

[3] = system: GP2D cells; assay: Cell proliferation assay (CellTiter-Glo), K-Ras G12D cells; format: cell-based; details: GP2D cells (K-Ras G12D); read-out: Inhibition of GP2D Cells (IC50)
Outline: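 CellTiter-Glo luminescence, taken roughly 5 days after dosing, measured growth of G12D-mutant GP2D cells in DMEM/2 mM glutamine/10% FBS. Compound dilution series (e.g., 9 points, 3-fold) added the day after plating. Four-parameter fitting gave IC50.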

[4] = biological target: T2, K-Ras G12S (Homo sapiens, UniProt P01116, G12S); assay: HTRF assay of the K-Ras / SOS1 interaction; format: biochemical; details: IC50 (against K-Ras G12D) to IC50 (against K-Ras G12S)
T2 construct: made in house; host or cells: E. coli (e.g., BL21 (DE3))
Outline: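 Compounds (duplicates, 10 µM to 0.01 µM) were incubated ≥~10 min with Eu-labelled GST-K-Ras G12S and XL665-labelled His-hSOS1 in HEPES pH 7.4 buffer containing NaCl, DTT, BSA and Igepal. Disruption measured as HTRF emission ratio 665/620 nm, fitted to IC50.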

SMILES	% G12S Modification at 24 hr. [1]	pIC50 ([2]; bin ≤ 500 nM)	pIC50 [3]	ratio of IC50 against a G12D cell line to IC50 against a G12S cell line [2]	Ratio of IC50 KRAS G12D vs. IC50 KRAS G12S [4]	pIC50 ([2]; bin 500 nM to 5 µM)
C#Cc1c(F)ccc2cc(O)cc(-c3ncc4c(N5CCOC6(CN(C(=O)n7cncn7)C6)C5)nc(OC[C@@]56CCCN5C[C@H](F)C6)nc4c3F)c12 [Compound A106, (8-(7-(8-ethynyl-7-fluoro-3-hydroxynaphthalen-1-yl)-8-fluoro-2-(((2R,7aS)-2-fluorotetrahydro-1H-pyrrolizin-7a(5H)-yl)methoxy)pyrido[4,3-d]pyrimidin-4-yl)-5-oxa-2,8-diazaspiro[3.5]nonan-2-yl)(1H-1,2,4-triazol-1-yl)methanone]	+++ (+++ indicates greater than 20% labelling)	≥ 6.30	5.00 to 6.00	–	–	–
C#Cc1c(F)ccc2cc(O)cc(-c3ncc4c(N5CCCCC6(CN(C(=O)n7cncn7)C6)C5)nc(OC[C@@]56CCCN5C[C@H](F)C6)nc4c3F)c12 [Compound A128, (6-(7-(8-ethynyl-7-fluoro-3-hydroxynaphthalen-1-yl)-8-fluoro-2-(((2R,7aS)-2-fluorotetrahydro-1H-pyrrolizin-7a(5H)-yl)methoxy)pyrido[4,3-d]pyrimidin-4-yl)-2,6-diazaspiro[3.6]decan-2-yl)(1H-1,2,4-triazol-1-yl)methanone]	+++ (+++ indicates greater than 20% labelling)	≥ 6.30	≥ 6.00	greater than 1	–	–
C#Cc1c(F)ccc2cc(O)cc(-c3ncc4c(N5CCCC6(CN(C(=O)n7cncn7)C6)C5)nc(OC[C@@]56CCCN5C[C@H](F)C6)nc4c3F)c12 [Compound A133, (6-(7-(8-ethynyl-7-fluoro-3-hydroxynaphthalen-1-yl)-8-fluoro-2-(((2R,7aS)-2-fluorotetrahydro-1H-pyrrolizin-7a(5H)-yl)methoxy)pyrido[4,3-d]pyrimidin-4-yl)-2,6-diazaspiro[3.5]nonan-2-yl)(1H-1,2,4-triazol-1-yl)methanone]	+++ (+++ indicates greater than 20% labelling)	≥ 6.30	5.00 to 6.00	–	–	–
N#Cc1c(N)sc2c(F)ccc(-c3c(Cl)cc4c(N5CCOC6(CN(C(=O)n7cncn7)C6)C5)nc(OC[C@@]56CCCN5C[C@H](F)C6)nc4c3F)c12 [Compound A162, 4-(4-(2-(1H-1,2,4-triazole-1-carbonyl)-5-oxa-2,8-diazaspiro[3.5]nonan-8-yl)-6-chloro-8-fluoro-2-(((2R,7aS)-2-fluorotetrahydro-1H-pyrrolizin-7a(5H)-yl)methoxy)quinazolin-7-yl)-2-amino-7-fluorobenzo[b]thiophene-3-carbonitrile]	+++ (+++ indicates greater than 20% labelling)	≥ 6.30	–	–	A (A: indicates that the ratio of IC50 against KrasG12D vs. IC50 against KrasG12S is 1-fold or greater)	–
N#Cc1c(N)sc2c(F)ccc(-c3c(Cl)cc4c(N5CCC6CN(C(=O)n7cncn7)CC65)nc(OC[C@@]56CCCN5C[C@H](F)C6)nc4c3F)c12 (stereo partly drawn) [Compound A178, 4-(4-(5-(1H-1,2,4-triazole-1-carbonyl)hexahydropyrrolo[3,4-b]pyrrol-1(2H)-yl)-6-chloro-8-fluoro-2-(((2R,7aS)-2-fluorotetrahydro-1H-pyrrolizin-7a(5H)-yl)methoxy)quinazolm-7-yl)-2-amino-7-fluorobenzo[b]thiophene-3-carbonitrile]	+++ (+++ indicates greater than 20% labelling)	≥ 6.30	≥ 6.00	–	–	–
N#Cc1c(N)sc2c(F)ccc(-c3c(Cl)cc4c(N5CC(F)(F)C6(CN(C(=O)n7cncn7)C6)C5)nc(OC[C@@]56CCCN5C[C@H](F)C6)nc4c3F)c12 [Compound A199, 2-amino-4-(6-chloro-4-(8,8-difluoro-2-(1H-1,2,4-triazole-1-carbonyl)-2,6-diazaspiro[3.4]octan-6-yl)-8-fluoro-2-(((2R,7aS)-2-fluorotetrahydro-1H-pyrrolizin-7a(5H)-yl)methoxy)quinazolm-7-yl)-7-fluorobenzo[b]thiophene-3-carbonitrile]	+++ (+++ indicates greater than 20% labelling)	–	–	greater than 1	A (A: indicates that the ratio of IC50 against KrasG12D vs. IC50 against KrasG12S is 1-fold or greater)	–
C#Cc1c(F)ccc2cc(O)cc(-c3ccc4c(N5CCCC6(CN(C(=O)n7cncn7)C6)C5)nc(OC[C@@]56CCCN5C[C@H](F)C6)nc4c3F)c12 [Compound A210, (6-(7-(8-ethynyl-7-fluoro-3-hydroxynaphthalen-1-yl)-8-fluoro-2-(((2R,7aS)-2-fluorotetrahydro-1H-pyrrolizin-7a(5H)-yl)methoxy)quinazolin-4-yl)-2,6-diazaspiro[3.5]nonan-2-yl)(1H-1,2,4-triazol-1-yl)methanone]	+++ (+++ indicates greater than 20% labelling)	≥ 6.30	5.00 to 6.00	greater than 1	–	–
C[C@H](Oc1nc(N2CCCCC3(CN(C(=O)n4cncn4)C3)C2)c2cc(Cl)c(-c3ccc(F)c4sc(N)c(C#N)c34)c(F)c2n1)[C@@H]1CCCN1C [Compound A219, 4-(4-(2-(1H-1,2,4-triazole-1-carbonyl)-2,6-diazaspiro[3.6]decan-6-yl)-6-chloro-8-fluoro-2-((S)-1-((S)-1-methylpyrrolidin-2-yl)ethoxy)quinazolin-7-yl)-2-amino-7-fluorobenzo[b]thiophene-3-carbonitrile]	+++ (+++ indicates greater than 20% labelling)	≥ 6.30	≥ 6.00	greater than 1	–	–
N#Cc1ccn(C(=O)N2C3CCC2CN(c2nc(OC[C@@]45CCCN4C[C@H](F)C5)nc4c(F)c(-c5ccc(F)c6sc(N)nc56)c(Cl)cc24)C3)n1 [Compound A245, 1-(3-(7-(2-amino-7-fluorobenzo[d]thiazol-4-yl)-6-chloro-8-fluoro-2-(((2R,7aS)-2-fluorotetrahydro-1H-pyrrolizin-7a(5H)-yl)methoxy)quinazolin-4-yl)-3,8-diazabicyclo[3.2. 1]octane-8-carbonyl)-1H-pyrazole-3-carbonitrile]	–	–	≥ 6.00	–	A (A: indicates that the ratio of IC50 against KrasG12D vs. IC50 against KrasG12S is 1-fold or greater)	5.30 to 6.30
N#Cc1c(N)sc2c(F)ccc(-c3c(Cl)cc4c(N5CC6CCC(C5)N6C(=O)n5cncn5)nc(OC[C@@]56CCCN5C[C@H](F)C6)nc4c3F)c12 [Compound A260, 4-(4-(8-(1H-1,2,4-triazole-1-carbonyl)-3,8-diazabicyclo[3.2.1]octan-3-yl)-6-chloro-8-fluoro-2-(((2R,7aS)-2-fluorotetrahydro-1H-pyrrolizin-7a(5H)-yl)methoxy)quinazolin-7-yl)-2-amino-7-fluorobenzo[b]thiophene-3-carbonitrile]	–	≥ 6.30	≥ 6.00	–	A (A: indicates that the ratio of IC50 against KrasG12D vs. IC50 against KrasG12S is 1-fold or greater)	–
Nc1nc2c(-c3c(Cl)cc4c(N5CC6CCC(C5)N6C(=O)n5ccnc5)nc(OC[C@@]56CCCN5C[C@H](F)C6)nc4c3F)ccc(F)c2s1 [Compound A289, (3-(7-(2-amino-7-fluorobenzo[d]thiazol-4-yl)-6-chloro-8-fluoro-2-(((2R,7aS)-2-fluorotetrahydro-1H-pyrrolizin-7a(5H)-yl)methoxy)quinazolin-4-yl)-3,8-diazabicyclo[3.2.1]octan-8-yl)(1H-imidazol-1-yl)methanone]	–	–	≥ 6.00	–	A (A: indicates that the ratio of IC50 against KrasG12D vs. IC50 against KrasG12S is 1-fold or greater)	5.30 to 6.30
